Test system: Escherichia coli (E. coli)
Assay: Antibacterial test according to JIS Z2801 using E. coli (film surface not wiped with alcohol)
Assay type: cell-based
Conditions: judgement in the text
Protocol: For example, in an antibacterial test according to JIS Z2801, a predetermined amount of Escherichia coli (E. coli) or the like is added to a 1/500 nutrient broth. The nutrient broth is dropped onto the surface of the film of a 4 cm square, and is covered with a polyethylene film. The sample is placed at 35° C. After 24 hours, the surface of the freshness-retentive film is washed to recover the nutrient broth. The number of bacterial cells is measured with a nutrient agar. In this test method, alkyldiethanolamine should be diffused in the nutrient broth (solution) in a concentration of 30 ppm or more.
An antibacterial test was performed using Escherichia coli (E. coli) according to JIS Z2801. To keep the state of the surface of the freshness-retentive film, the surface thereof was not wiped with alcohol.
Predetermined amounts of Escherichia coli (E. coli), Staphylococcus aureus, Salmonella, and Vibrio parahaemolyticus (broth (0.4 cc) used in a JIS test) were added to a 1/500 nutrient broth. The nutrient broth was dropped onto the surface of a freshness-retentive film of a 4 cm square, and was covered with a polyethylene film. The film was placed at 35° C., and after 24 hours, the surface of the freshness-retentive film was washed. The washing liquid containing the nutrient broth was recovered, and was cultured on a nutrient agar. The number of colonies was counted.
Since the number of bacterial cells is difficult to count under a microscope, the number of colonies was visually counted. The number of colonies per gram (g) was defined as the number of living bacterial cells CFU (colony forming unit) (unit: [colonies/g]). A sample sandwiched between two polyethylene films was used as a control (Control) for comparison. In Tables, the averages at n=1 to 3 are also shown. If a fluctuation in the measured values is 10 times or more, the average is not calculated according to the JIS specification.
An antibacterial test was performed in the same manner as in Experiment 1.
An antibacterial test was performed in the same manner as in Experiment 1. […]

| Compound | antibacterial characteristics against E. coli (in words) |
| --- | --- |
| diglycerol monopalmitate | does not inhibit the antibacterial activity of stearyldiethanolamine |
| CCCCCCCCCCCCCCCCCCN(CCO)CCO [stearyldiethanolamine] | significantly superior to those of stearyldiethanolamine monostearate |
| CCCCCCCCCCCCCCCCCC(=O)OCC(O)CO (stereo not drawn) [glycerol monostearate] | inhibits the antibacterial activity of stearyldiethanolamine |

Reference: US20210120812A1, “FRESHNESS-RETENTIVE FILM” (MITSUI CHEMICALS TOHCELLO, INC., priority 2013, published 2021)
